# Reference: the supplement of paper PMC10307832
# Columns and labels:
# Experiment in all cases: relative viability (nuclei count vs DMSO), 5 days (fraction); higher = more cells survive
# [1] = compound: CN1C=C(C2=CC=CC=C21)/C=C\3/C4=C(C=CC=N4)NC3=O + O=C(CCCCCCC(=O)Nc1ccccc1)NO [Vorinostat] (partner 1 µM)
# Procedure, shortened: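 Lung cancer cell lines in 1536-well plates got either a single drug or a fixed anchor-drug dose together with five library-drug doses (not always all listed) in √10 steps, by pin tool, on the day after seeding. Nuclei were counted after 5 days, and relative viability is the treated-to-vehicle ratio of nuclei counts. Values are medians of duplicate plates.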
# Trametinib = compound: CC(=O)Nc1cccc(-n2c(=O)n(C3CC3)c(=O)c3c(Nc4ccc(I)cc4F)n(C)c(=O)c(C)c32)c1 [Trametinib]
# Procedure, shortened: (§1)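 Viability here means nuclei in treated wells divided by nuclei in vehicle wells, reported as the median across plates. Only plates with control CV below 25% and at least one doubling passed. Lung cancer cell lines in 1536-well plates were exposed to five √10-spaced library-drug doses for 5 days and counted from 4× Hoechst images in MetaXpress.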
# [2] = compound: CN1C=C(C2=CC=CC=C21)/C=C\3/C4=C(C=CC=N4)NC3=O
# Procedure, shortened: as §1
Cell Line,relative viability ([1]; first compound 0.02 µM),relative viability ([1]; first compound 0.06325 µM),relative viability ([1]; first compound 0.6325 µM),relative viability ([1]; first compound 2 µM),relative viability (Trametinib; 0.0025 µM),relative viability (Trametinib; 0.007906 µM),"relative viability (Trametinib; 0.02 µM, anchor plate)",relative viability (Trametinib; 0.025 µM),relative viability (Trametinib; 0.07906 µM),relative viability (Trametinib; 0.25 µM),relative viability ([2]; 0.02 µM),relative viability ([2]; 0.06325 µM),relative viability ([2]; 0.6325 µM),relative viability ([2]; 2 µM),relative viability ([1]; first compound 0.2 µM),relative viability ([2]; 0.2 µM)
NCI-H650,0.439,0.369,0.383,0.328,1.1,1.24,0.98,1.08,0.957,0.623,0.968,0.915,0.84,0.846,–,–
IA-LM,1.07,1.2,–,0.927,0.764,0.464,–,0.166,0.178,0.107,0.978,0.934,0.811,0.878,1.04,0.945
A-427,0.89,0.845,0.901,0.813,1.04,0.96,0.77,0.66,0.68,0.35,1.06,0.955,1.04,1.03,–,–
NCI-H2347,0.585,0.659,0.493,0.517,0.988,0.535,0.285,0.377,0.356,0.371,1.05,1.01,0.932,1.02,0.582,0.94
NCI-H1793,0.774,0.733,0.681,0.704,0.59,0.611,0.429,0.298,0.338,0.254,1.02,1.1,0.79,0.918,0.522,0.737
NCI-H1651,0.656,0.573,0.563,0.537,0.942,0.958,0.837,0.851,0.837,0.691,1.07,0.961,0.945,1.06,0.571,0.957
HCC-78,0.431,0.46,0.424,0.427,0.933,0.735,0.805,0.678,0.573,0.526,0.81,0.905,0.803,0.889,0.381,0.731
NCI-H23,0.579,0.518,0.612,0.474,0.876,0.831,0.417,0.349,0.433,0.264,0.802,0.849,1.03,0.986,0.537,0.685
LOU-NH91,0.816,0.851,0.809,0.848,0.926,0.923,0.799,0.761,0.8,0.366,0.902,0.825,0.856,0.95,0.789,0.844
LXF-289,0.693,0.828,0.817,0.801,0.897,0.86,0.679,0.755,0.722,0.664,0.979,1,1,1.03,0.689,0.976
NCI-H460,0.958,0.655,0.37,0.545,0.982,0.969,0.159,0.668,0.339,0.12,1.04,0.98,0.992,0.947,0.685,0.973
NCI-H1792,–,–,–,–,0.844,0.856,0.475,0.477,0.387,0.281,0.88,0.979,0.829,0.957,–,0.69
EMC-BAC-2,0.849,0.441,0.261,0.214,1.2,1.01,0.859,0.775,0.61,0.635,1.1,0.92,0.798,0.673,0.39,0.89
CAL-12T,0.652,0.675,0.873,0.679,0.904,0.723,0.369,0.503,0.51,0.343,0.894,0.873,0.972,0.924,0.703,0.98
ChaGo-K-1,0.71,0.772,0.759,0.769,0.999,0.921,0.917,0.951,0.861,0.764,0.991,1,1.02,0.996,0.627,0.784
COR-L 105,0.845,0.682,0.793,0.768,0.835,0.786,0.446,0.426,0.386,0.426,0.803,0.838,1.05,1.02,0.774,0.837
NCI-H1944,0.471,0.5,0.568,0.528,0.989,0.672,0.427,0.558,0.487,0.363,0.903,0.948,0.989,0.936,–,–
NCI-H2009,0.69,0.671,0.766,0.683,0.864,0.647,0.297,0.384,0.355,0.331,0.975,0.994,1.05,1.05,0.748,1.02
SW 900,0.588,–,0.352,0.463,0.713,0.811,0.808,0.751,0.771,0.19,0.969,0.79,1.02,0.987,–,–
NCI-H441,0.807,0.752,0.694,0.793,0.959,0.908,0.522,0.667,0.605,0.246,1.19,0.935,1.01,1.02,0.833,1.08
NCI-H1623,–,–,–,–,0.839,0.74,–,0.552,0.569,0.523,0.815,1.02,0.85,0.912,–,0.735
NCI-H1437,0.955,0.823,0.804,0.71,0.959,0.742,0.535,0.478,0.388,0.361,1.06,0.998,1.05,1.04,0.857,0.882

Cell Line,relative viability ([1]; first compound 0.02 µM),relative viability ([1]; first compound 0.06325 µM),relative viability ([1]; first compound 0.6325 µM),relative viability ([1]; first compound 2 µM),relative viability (Trametinib; 0.0025 µM),relative viability (Trametinib; 0.007906 µM),"relative viability (Trametinib; 0.02 µM, anchor plate)",relative viability (Trametinib; 0.025 µM),relative viability (Trametinib; 0.07906 µM),relative viability (Trametinib; 0.25 µM),relative viability ([2]; 0.02 µM),relative viability ([2]; 0.06325 µM),relative viability ([2]; 0.6325 µM),relative viability ([2]; 2 µM),relative viability ([1]; first compound 0.2 µM),relative viability ([2]; 0.2 µM)
PC-14,0.759,0.583,0.674,0.744,1.03,0.953,0.756,0.758,0.626,0.226,0.944,0.943,1.01,1.05,0.728,0.926
LCLC-103H,0.819,0.755,0.853,0.766,0.92,0.869,0.672,0.814,0.697,0.685,0.963,0.933,0.98,0.959,0.749,0.976
COR-L23,0.452,0.433,0.479,0.396,0.979,0.995,0.593,0.871,0.849,0.476,0.992,0.994,1.12,1,0.42,1.09
H3255,1.03,–,0.749,0.774,0.973,0.879,0.631,0.787,0.742,0.563,1.04,0.951,0.978,0.903,0.876,0.834
NCI-H2126,0.876,0.719,0.748,0.802,0.9,0.836,0.572,0.585,0.738,0.669,0.965,0.993,1.01,0.955,0.744,0.885
HCC-366,0.239,0.32,0.226,0.174,0.959,0.969,0.373,0.796,0.669,0.395,1.01,1,1.1,1.02,0.28,0.923
LU99A,0.475,0.401,0.492,0.477,0.953,0.829,0.53,0.551,0.707,0.681,0.983,0.845,0.937,0.789,0.508,0.909
HOP-62,0.565,0.543,0.576,0.547,1,0.943,0.4,0.778,0.444,0.209,0.992,1.03,1.02,0.938,–,0.805
HCC-15,0.915,0.824,0.74,0.706,0.795,0.541,0.389,0.544,0.325,0.28,0.947,0.952,1.01,1.01,0.867,1.03
HARA,0.511,0.524,0.491,0.5,0.861,0.947,0.674,0.86,0.503,0.375,0.935,0.972,0.96,0.928,0.531,0.657
SK-MES-1,1.07,0.995,1.07,0.984,0.948,0.803,0.574,0.621,0.485,0.359,0.967,0.959,0.929,0.967,0.864,0.951
NCI-H1355,0.581,0.581,0.513,0.534,0.921,0.796,0.419,0.542,0.653,0.583,0.933,0.888,0.692,0.824,0.653,0.899
NCI-H727,1.02,1.21,1.23,1.35,0.678,0.381,0.389,0.381,0.295,0.288,0.924,0.855,0.921,0.936,0.903,0.818
NCI-H520,0.797,0.482,0.718,0.722,0.86,1.06,0.735,0.924,0.949,0.623,0.967,0.895,0.952,0.965,0.661,1.03
NCI-H838,0.679,0.653,0.601,0.55,0.873,0.855,0.527,0.615,0.763,0.594,0.82,0.859,0.837,0.909,0.591,0.914
HCC-44,1.03,1.09,1.12,1.02,0.966,0.982,1.05,1.02,0.82,0.495,0.902,0.906,0.991,0.935,1.1,0.87
EBC-1,–,–,–,–,1,0.98,–,0.648,0.308,0.207,0.968,0.963,0.912,0.969,–,0.905
NCI-H1703,–,–,–,–,0.778,0.906,–,0.825,0.875,0.684,0.943,0.827,0.9,0.776,–,0.8
NCI-H1563,–,–,–,–,0.983,0.782,–,0.952,0.938,0.723,1.08,1,1.05,0.992,–,0.99
NCI-H1299,–,–,–,–,1.04,1.04,–,0.897,0.818,0.584,1.01,1.01,1.05,1.02,–,1.02
A549,–,–,–,–,0.864,0.658,–,0.375,0.278,0.14,0.935,0.992,0.923,0.989,–,0.767
Calu-6,–,–,–,–,0.915,0.727,–,0.472,0.24,0.18,1.02,0.968,0.99,1.05,–,1.01
